Measured values: ChEMBL document CHEMBL2074156, “Inhibition of P-glycoprotein activity and reversal of multidrug resistance in vitro by rosemary extract” (Eur J Cancer, 1999)

Molecular target: ATP-dependent translocase ABCB1 (Homo sapiens, UniProt P08183)
Test: TP_TRANSPORTER: inhibition of Doxorubicin and Vinblastine efflux in drug-resistant MCF-7 cells
Type: functional, cell-based
Settings: mcf7

ATP-dependent translocase ABCB1, sequence (P08183 whole entry): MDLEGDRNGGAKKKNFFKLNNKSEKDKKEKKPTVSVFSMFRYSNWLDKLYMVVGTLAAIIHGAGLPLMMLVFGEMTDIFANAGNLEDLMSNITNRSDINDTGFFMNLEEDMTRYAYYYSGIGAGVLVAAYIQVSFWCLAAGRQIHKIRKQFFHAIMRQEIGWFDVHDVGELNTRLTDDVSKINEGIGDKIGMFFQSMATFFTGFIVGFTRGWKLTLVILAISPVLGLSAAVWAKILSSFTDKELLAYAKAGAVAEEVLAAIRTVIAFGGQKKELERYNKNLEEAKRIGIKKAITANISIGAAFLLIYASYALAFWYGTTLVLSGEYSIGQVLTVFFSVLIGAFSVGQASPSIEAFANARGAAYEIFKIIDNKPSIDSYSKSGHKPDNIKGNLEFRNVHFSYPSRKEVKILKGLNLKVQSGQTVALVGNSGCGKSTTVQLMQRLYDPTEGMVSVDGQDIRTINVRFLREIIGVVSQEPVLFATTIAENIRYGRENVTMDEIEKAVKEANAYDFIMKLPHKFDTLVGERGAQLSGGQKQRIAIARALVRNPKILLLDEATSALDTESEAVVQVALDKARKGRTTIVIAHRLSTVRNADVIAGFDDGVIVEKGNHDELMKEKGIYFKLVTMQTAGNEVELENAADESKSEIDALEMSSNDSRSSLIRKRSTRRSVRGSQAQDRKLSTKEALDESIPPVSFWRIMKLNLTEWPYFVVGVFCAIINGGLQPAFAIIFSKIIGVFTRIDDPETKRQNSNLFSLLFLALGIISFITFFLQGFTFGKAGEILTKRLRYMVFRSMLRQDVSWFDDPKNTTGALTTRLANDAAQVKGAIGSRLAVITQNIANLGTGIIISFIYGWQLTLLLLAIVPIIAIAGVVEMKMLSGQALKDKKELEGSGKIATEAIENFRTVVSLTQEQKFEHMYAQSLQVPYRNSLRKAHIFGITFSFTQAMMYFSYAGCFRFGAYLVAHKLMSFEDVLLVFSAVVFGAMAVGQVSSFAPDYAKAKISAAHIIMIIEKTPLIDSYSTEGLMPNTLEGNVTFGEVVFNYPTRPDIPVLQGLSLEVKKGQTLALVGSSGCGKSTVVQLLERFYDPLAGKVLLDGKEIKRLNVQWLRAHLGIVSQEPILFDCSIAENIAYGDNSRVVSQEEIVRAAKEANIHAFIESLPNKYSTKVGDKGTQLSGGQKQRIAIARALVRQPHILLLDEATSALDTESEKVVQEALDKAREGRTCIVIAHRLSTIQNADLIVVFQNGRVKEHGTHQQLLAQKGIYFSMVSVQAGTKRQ

Activity: inhibitor [+]
Sequence: ROSEMARY EXTRACT
